Columns and labels:
[1] = molecular target: T1, PPARδ (Homo sapiens, UniProt Q03181); test: PPAR reporter gene model in L-02 cells, PPARδ; format: cell-based; conditions: luciferase reporter, 24 hours drug, read-out: Half-maximal activation concentration of reporter gene AC50, PPARδ
T1 construct: expressed in transfected cells; host or cells: human hepatocyte cell line L-02
T1 sequence (Q03181 1-441): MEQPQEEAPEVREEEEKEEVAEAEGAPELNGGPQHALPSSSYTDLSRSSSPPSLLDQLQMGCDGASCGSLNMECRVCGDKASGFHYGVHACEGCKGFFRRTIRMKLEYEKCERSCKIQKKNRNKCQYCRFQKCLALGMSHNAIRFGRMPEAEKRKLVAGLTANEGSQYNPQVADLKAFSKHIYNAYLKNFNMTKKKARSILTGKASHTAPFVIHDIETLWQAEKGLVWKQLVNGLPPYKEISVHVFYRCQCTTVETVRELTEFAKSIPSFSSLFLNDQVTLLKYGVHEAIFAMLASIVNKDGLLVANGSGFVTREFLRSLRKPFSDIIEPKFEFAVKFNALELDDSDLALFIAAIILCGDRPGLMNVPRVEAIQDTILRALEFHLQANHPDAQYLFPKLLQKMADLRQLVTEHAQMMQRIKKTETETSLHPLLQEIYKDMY
T1 sequence (P19793 1-462 partner): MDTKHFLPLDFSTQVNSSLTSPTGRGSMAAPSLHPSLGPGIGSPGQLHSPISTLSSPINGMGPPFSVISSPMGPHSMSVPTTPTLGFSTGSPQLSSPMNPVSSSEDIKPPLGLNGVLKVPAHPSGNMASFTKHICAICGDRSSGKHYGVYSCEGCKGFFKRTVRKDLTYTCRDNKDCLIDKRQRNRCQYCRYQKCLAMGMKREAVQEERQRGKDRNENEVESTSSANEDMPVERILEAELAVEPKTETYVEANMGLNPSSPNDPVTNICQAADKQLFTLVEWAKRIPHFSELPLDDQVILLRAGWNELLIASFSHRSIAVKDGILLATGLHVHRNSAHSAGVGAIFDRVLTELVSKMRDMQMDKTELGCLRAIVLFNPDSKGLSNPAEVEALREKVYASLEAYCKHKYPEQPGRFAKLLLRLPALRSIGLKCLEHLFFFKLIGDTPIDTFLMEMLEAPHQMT
Procedure: The PPAR reporter gene model comprises three subtypes of expression plasmids, RXR expression plasmid, plasmid with luciferase reporter gene, and GFP expression plasmid as an external reference. The human hepatocyte cell line L-02 cells were seeded into 96-well plates at the density of 15,000 cells/well with about 50% plating rate, followed by culturing for 24 hours at 37° C. […] The fluorescence intensity (at wavelength 485-527 nm) of green fluorescent protein (GFP) in each well was firstly detected as an internal standard by a fluorescence detector, and then 30 μL of luciferase substrates (Promega, E151A) were added to each well. After slightly shaking to mix well, the […] were detected. The relative reporter gene activation intensity was obtained by the ratio of the fluorescence detection signal of the drugs to be tested to that of the solvent control, with both the signals normalized to the internal standard GFP signal. The half-maximal activation (AC50) of the drugs to be tested was calculated with the activity at various concentrations (shown in Table 1).

[2] = system: primary human hepatic stellate cells; test: PDGF-BB stimulated proliferation of hepatic stellate cells (EdU and MTT assay); format: cell-based; conditions: EdU 24 hours, MTT 72 hours, FIGS. 1-2
Procedure: Primary human hepatic stellate cells (HSC) purchased from Sciencell Research Laboratories, Inc. were seeded into 96-well plates with complete growth media (Stellate Cell Medium) for 24 hours, followed by culturing overnight in culture media free of serum and growth factors, and then the culture media were replaced by fresh media containing platelet-derived growth factor (PDGF-BB) and the compounds to be tested (chiglitazar sodium or the reference compound PPARγ/α dual agonist pioglitazone purchased from Selleck Chemicals LLC) at various concentrations, and the cells were cultured for 24 hours. When the cells were treated with the compounds for the last 17 hours, EdU (5-ethynyl-2′-deoxyuridine) was added to the cells. Finally, the culture media were removed and the cells were fixed with formaldehyde. The amount of the EdU incorporated into the DNA of the cells was quantified by fluorescent Click-it EdU assay according to the manufacturer's instructions (Beyotime). […] The inhibition of cell proliferation by the compounds was determined by comparing the EdU incorporated value of the control group (FIG. 1). […]

[3] = system: α-smooth muscle actin (α-SMA); test: TGF-β1-activated hepatic stellate cells, α-SMA gene expression (qPCR); format: cell-based, human; conditions: TGF-β1 stimulation, 24 hours; FIG. 4
Procedure: Human primary hepatic stellate cells were seeded into 6-well plates with complete growth media (Stellate Cell Medium) for 24 hours, and then the culture media were replaced by fresh media (free of serum and growth factors) containing TGF-β1 and the compound to be tested (sodium chiglitazar) or the reference compound PPARγ/α dual agonist pioglitazone or PPARα/δ dual agonist GFT505 (both purchased from Selleck), and the cells were cultured for 24 hours. The total RNAs of the samples were extracted, and reverse transcription reaction was performed. Thereafter, a conventional PCR amplification kit (FastStart Universal SYBR@ Green Master (ROX), Roche) was used for further detection, where the PCR primers were designed with reference to the NCBI standard mRNA sequence of the target genes (Table 2). PCR reaction and detection were carried out on the ABI StepOnePlus real-time quantitative PCR instrument. By calculating the relative amount of transcripts was calculate by “Delta-Delta CT method” (Livak et al. Methods 2001), and using ACTB as the housekeeping gene for normalization and the average data of untreated human hepatic stellate cells as a reference control, the relative change folds of gene expression were obtained (FIG. 4).

`O=C(c1ccc(F)cc1)c1ccccc1N[C@@H](Cc1ccc(OCCn2c3ccccc3c3ccccc32)cc1)C(=O)[O-].[Na+]` [sodium chiglitazar] was tested, and the AC50 [1] was 708 nM, the “Inhibition of in vitro proliferation of liver-derived fibroblasts” value [2] was “had inhibitory activity” and the “Effect on expression of α-smooth muscle actin” value [3] was “significantly inhibited”.
